Test results as given in patent publication US20240252654A1, “IMPROVED SMALL MOLECULES” (University of Dundee, priority 2020, published 2024).

Key:
BRD2 and BRD4 = test: Dose-response degradation immunoblot in RCC4-HA-VHL cells; format: cell-based; conditions: 6 h, 500 nM to 6.4 pM
Protocol: Compound MN674 was designed and synthesised as another analogue of SIM1. […] MN674 was tested in the mammalian cell line RCC4-HA-VHL in a dose-response degradation assay. The assay involved immunoblots (see FIG. 21 for raw western blot data and FIG. 22 for dose-response curves) displaying 6 hour treatments of eight 5-fold serial dilutions from 500 nM to 6.4 pM of each compound. […] RCC4-HA-VHL cells were exposed to eight 5-fold serial dilutions (from 500 nM to […]) of heterotrivalent Bet-Bet-VHL PROTACs SIM1 and MN674 for 6 hour treatments, before lysates were harvested and analysed on immunoblots (FIG. 21). A Bio-Rad MP imaging system was used for fluorescence detection of BRD2 (IRDye 800CW), BRD4_long (IRDye 800CW), BRD4_short (IRDye 800CW) and house-keeping gene Tubulin (Rhodamine). The intensities of the bands were determined using ImageLab software and all BET protein intensities normalised to Tubulin in order to convert them into a percentage band intensity rationalised to the 0.1% DMSO-only control. These intensities were then plotted in GraphPad Prism for Dose-Response [Inhibition] Variable slope (four parameter) analyses to generate the curves for BRD2 (FIG. 22a) and BRD4 (FIG. 22b), to determine the DC50 values presented in Table 3 (FIG. 20). The experiment is representative of n=2 i.e. biological duplicate.

MV4; 11 cells = test: Correlative cell viability in cMyc-HiBiT MV4;11 cells (CellTiter-Glo); format: cell-based; conditions: 1 nM, after 6 h
Protocol: Monitoring cMyc Loss and Cell Viability in MV4; 11 Cells. CRISPR cMyc-HiBiT MV4; 11 cells (Promega) were plated at a density of 5×10^4 cells per well in solid, white 96-well tissue culture plates (Corning Costar #3917). Following an overnight incubation, they were treated with 1-100 nM concentration of the indicated compounds and at the plotted time points, cMyc levels were determined using luminescent measurement with NanoGlo HiBiT lytic reagent (Promega). Replicate plate of all compound treatments were prepared and at identical timepoints as the protein level measurements, cell viability was measured using Cell-Titer Glo (Promega). Plates were shaken on an orbital shaker for 10-20 min before reading luminescence on a GloMax Discover Microplate Reader (Promega).

22Rv1 cells = test: PARP cleavage immunoblot in 22Rv1 cells; format: cell-based; conditions: 22Rv1, 10 nM, 24 h (MT1, MZ1 up to 48 h)
Protocol: Next, the inventors assessed the functional effects of SIM1 on the viability of 22Rv1 cancer cells. […] Cells died of apoptosis as indicated by prevented cleavage of PARP upon co-treatment with QVD-OPh, a pan-caspase inhibitor, and not of necroptosis, as shown by co-treatment with Necrostatin-1 (FIG. 3d and FIG. 10a).
Degradation assays. MV4; 11 cells were seeded at 1×10^6 cells/mL of 10 cm dishes 12-24 h before treatment. 22Rv1 and HEK293 cells were seeded at 2.5-6×10^5 cells/well of 6 well plates 12-24 h before treatment. Cells were treated with test compounds with and without inhibitors as indicated or an equivalent volume of DMSO and lysed at the stated time point. For lysis, cells were washed twice in ice cold PBS (Invitrogen) then lysed in 250 μL/plate for MV4; 11 cells or 80 μL/well for 22Rv1 and HEK293 cells of ice cold lysis buffer containing 50 mM Tris hydrochloride pH 7.4, 150 mM sodium chloride, 1 mM EDTA pH 7.4, 1% v/v Triton X-100, 1×Halt™ Protease Inhibitor Cocktail (ThermoFisher). […] Protein concentration was determined by BCA assay (Pierce) and the absorbance at 562 nm measured by spectrophotometry (NanoDrop ND1000). […] Bands were detected using a ChemiDoc MP imaging system (BioRad) and quantified (Image Studio Lite, version 5.2) with normalisation to β-actin and the DMSO control per time point. […]

HiBiT-BRD4 [1] = biological target: T1, HiBiT-BRD4 (Homo sapiens, UniProt O60885); test: NanoBRET target engagement, permeabilized and live cells; format: cell-based
T1 construct: endogenously HiBiT tag the N-terminal genomic loci of BRD2, BRD3, or BRD4; endogenous in cells; host or cells: HEK293 stably expressing LgBiT, CRISPR/Cas9 edited
Protocol: Cells were treated with a fluorescent BET tracer, then incubated with the indicated compounds at various concentrations to measure competitive displacement.
(§1) NanoBRET Target Engagement and Residence Time. For target engagement experiments in live and permeabilized cells, CRISPR HiBiT-BRD4 HEK293 cells stably expressing LgBiT were plated into white 96-well tissue culture plates at a density of 2×10^4 cells/well. Cells were equilibrated for 1 h with energy transfer probes and the indicated test compound prior to NanoBRET measurements. NanoBRET tracers were prepared at a working concentration of 20× in tracer dilution buffer (12.5 mM HEPES, 31.25% PEG-400, pH 7.5). NanoBRET BRD Tracer-02 was added to cells at a final concentration of 0.5 μM. To measure NanoBRET in live cells, NanoBRET NanoGlo Substrate and Extracellular NanoLuc Inhibitor (Promega) were added according to the manufacturer's recommended protocol, and filtered luminescence was measured on a GloMax Discover luminometer equipped with 450 nm BP filter (donor) and 600 nm LP filter (acceptor) using 0.3 s integration time. To measure NanoBRET in permeabilized cells, digitonin was added to the cells to a final concentration of 50 μg/mL and Extracellular NIuc inhibitor was omitted during the detection step. […] Cells were incubated in 15 mL conical tubes with caps loosened in a tissue culture incubator for 1 h. Following incubation, cells were spun at 300×g for 5 min, washed once with Opti-MEM, spun a second time at 300×g for 5 min, then resuspended with fresh Opti-MEM before plating at 2×10^4 cells/well. NanoBRET BRD Tracer-02 was added at a final concentration of 0.5 μM cells and kinetic NanoBRET measurements were collected on a GloMax Discover. NanoBRET ratios were expressed in milliBRET units and calculated according to the equation in the NanoBRET Ubiquitination, Ternary Complex and Biosensor Experiments section.

HiBiT-BRD4 [2] = biological target: T1, HiBiT-BRD4; test: NanoBRET live cell residence time; format: cell-based; conditions: live cells
Protocol: as §1

[3] = system: VHL and full-length BRD4 WT, N140F, or N433F; test: Kinetic NanoBRET ternary complex assay, NanoLuc-BRD4 with HaloTag-VHL; format: cell-based, human
Protocol: NanoBRET Ubiquitination, Ternary Complex, and Biosensor Experiments. For endogenous live cell BET:Ubiquitin and BET:VHL assays, CRISPR HiBiT-BRD2, HiBiT-BRD3, and HiBiT-BRD4 HEK293 cells stably expressing LgBiT were transfected with 2 μg of HaloTag-UBB or HaloTag-VHL vectors in 6-well plates using FuGENE HD (Promega). For full transient NanoBRET experiments with NanoLuc-BRD4 WT, N433F, or N140F mutants, HEK293 cells (8×10^5) were co-transfected with 0.02 μg NanoLuc-BRD4 and 2 μg of HaloTag-VHL vectors. For transient NanoBRET experiments with the BRD4 NL-BD1-BD2-HT biosensor containing either the WT tandem BD1-BD2 domain (AA 44-460) or containing the N433F mutation, HEK293 cells (8×10^5) were transfected with 0.02 μg biosensor plasmid and 2 μg carrier DNA. […] NanoBRET NanoGlo (Promega) substrate was added and BRET was measured two hours post-compound treatment using a GloMax Discover Microplate Reader (Promega). Dual filtered luminescence was collected with a 460/80 nm bandpass filter and a 610 nm long pass filter (acceptor, HaloTag NanoBRET ligand) using an integration time of 0.5 s. For all NanoBRET experiments, background subtracted NanoBRET ratios expressed in milliBRET units were calculated from the equation: […]

SMILES | degradation potency relative to SIM1 (BRD2 and BRD4) | measurable cellular death (MV4; 11 cells) | PARP cleavage / cell death (22Rv1 cells) | IC80 (HiBiT-BRD4 [1]; live cell format, unit given with each value, read-out: IC80 for tracer displacement) [nM] | binding to endogenous HiBiT-BRD4 (HiBiT-BRD4 [1]; permeabilized cells) | residence time on BRD4 (HiBiT-BRD4 [2]) | ternary complex formation [3]
Cc1ncsc1-c1ccc(CNC(=O)[C@@H]2C[C@@H](O)CN2C(=O)[C@@H](NC(=O)COCC(C)(COCCOCCNC(=O)C[C@@H]2N=C(c3ccc(Cl)cc3)c3c(sc(C)c3C)-n3c(C)nnc32)COCCOCCNC(=O)C[C@@H]2N=C(c3ccc(Cl)cc3)c3c(sc(C)c3C)-n3c(C)nnc32)C(C)(C)C)cc1 [MN674, N,N′-(8-((2-(((S)-1-((2S,4R)-4-hydroxy-2-((4-(4-methylthiazol-5-yl)benzyl)carbamoyl)pyrrolidin-1-yl)-3,3-dimethyl-1-oxobutan-2-yl)amino)-2-oxoethoxy)methyl)-8-methyl-3,6,10,13-tetraoxapentadecane-1,15-diyl)bis(2-((S)-4-(4-chlorophenyl)-2,3,9-trimethyl-6H-thieno[3,2-f][1,2,4]triazolo[4,3-a][1,4]diazepin-6-yl)acetamide)] | comparable in degradation potencies to SIM1 |  |  |  |  |  | 
Cc1sc2c(c1C)C(c1ccc(Cl)cc1)=N[C@@H](CC(=O)NCCOCCOCCOCCOCCOCCOCCOCCNC(=O)C[C@@H]1N=C(c3ccc(Cl)cc3)c3c(sc(C)c3C)-n3c(C)nnc31)c1nnc(C)n1-2 [MT1] |  | not | did not cause observable PARP cleavage | 100 | near-identical binding affinities and IC50 values | longer residence time | not
